Data as given in patent publication US20090036492A1, “Novel Cercosporamide Derivative” (priority 2005, published 2009).

What follows are compounds tested on male KK mice (assay: Blood glucose lowering effect in diabetic KK mice). Conditions: 15 to 20 weeks old, feed containing 0.03% of the compound, three days, blood glucose on the 3rd day vs control group.
Type: in vivo
From the text: Six-week-old male KK mice were purchased from CLEA Japan, Inc. and then were fed until 15 to 20 weeks old and affected with diabetes. The mice were individually fed during the adaptation period and the test period, and water and feed (FR2, Funabashi Farm) were freely ingested.
At the start of the experiment, after body weight measurement, blood was collected from the tail vein of the mice into a heparin-coated glass tube and centrifuged, and then plasma was separated. The glucose level in the plasma was measured by Glucoloader GXT (A&T Corp.), and individuals having a blood glucose level of about 350 mg/dl or more were selected. Groups each having 3 to 4 mice were used for the experiment, and the mice were grouped to make the average body weight and the average blood glucose level similar. Each compound was administered to a compound administration group by feeding a mixture with feed containing 0.03% of the compound. A separate group in which the mice were fed only with feed was a control group.
The experiment period (drug administration period) was three days. The grouping day was the 0th day. On the 3rd day, body weight was measured and blood was collected from the tail vein to measure the blood glucose level.
The blood glucose lowering efficacy was determined by the following formula.
Blood glucose lowering efficacy=[(Control group blood glucose level−Compound administration group blood glucose level)/Control group blood glucose level]×100

Question: How did the “Blood glucose lowering efficacy (%)” value turn out when `COc1cc(O)c2c(c1C(=O)NCc1ccc(OCc3ccccc3F)c3ccccc13)OC1=CC(O)=C(C(C)=O)C(=O)[C@]12C` [Example 144, (9aS)-8-Acetyl-N-({4-[(2-fluorobenzyl)oxy]-1-naphthyl}methyl)-1,7-dihydroxy-3-methoxy-9a-methyl-9-oxo-9,9a-dihydrodibenzo[b,d]furan-4-carboxamide] was run?
Answer: Its value is 41%.

Question: How did the “Blood glucose lowering efficacy (%)” value turn out when `COc1cc(O)c2c(c1C(=O)NCc1ccc(Oc3ccccc3Cl)c3ccccc13)OC1=CC(O)=C(C(C)=O)C(=O)[C@]12C` [Example 166, (9aS)-8-Acetyl-N-{[4-(2-chlorophenoxy)-1-naphthyl]methyl}-1,7-dihydroxy-3-methoxy-9a-methyl-9-oxo-9,9a-dihydrodibenzo[b,d]furan-4-carboxamide] was run?
Answer: Its value is 47%.

Same assay, conditions: Mus musculus, po, 72 h, 15 to 20 weeks old, feed containing 0.03% of the compound, three days, blood glucose on the 3rd day vs control group, read-out: Blood glucose lowering efficacy (%)

Question: `COc1cc(O)c2c(c1C(=O)NCc1c(C)ccc3ccccc13)OC1=CC(O)=C(C(C)=O)C(=O)[C@]12C` [Example 27, (9aS)-8-Acetyl-1,7-dihydroxy-3-methoxy-9a-methyl-N-[(2-methyl-1-naphthyl)methyl]-9-oxo-9,9a-dihydrodibenzo[b,d]furan-4-carboxamide] was tested. Which inhibition in vivo at 0.03 % in feed did it give?
Answer: Its inhibition in vivo at 0.03 % in feed is 42%.

Question: With `CO/N=C(\C)C1=C(O)C=C2Oc3c(C(=O)NCc4c(C)ccc5ccccc45)c(OC)cc(O)c3[C@]2(C)C1=O` [Example 87, (9aS)-1,7-Dihydroxy-3-methoxy-8-[(1E)-N-methoxyethaneimidoyl]-9a-methyl-N-[(2-methyl-1-naphthyl)methyl]-9-oxo-9,9a-dihydrodibenzo[b,d]furan-4-carboxamide] as the compound, how does the inhibition in vivo at 0.03 % in feed read?
Answer: Its inhibition in vivo at 0.03 % in feed is 45%.

Question: `COc1cc(O)c2c(c1C(=O)NCc1c(C)cc(Cl)c3ccccc13)OC1=CC(O)=C(C(C)=O)C(=O)[C@]12C` [Example 178, (9aS)-8-Acetyl-N-[(4-chloro-2-methyl-1-naphthyl)methyl]-1,7-dihydroxy-3-methoxy-9a-methyl-9-oxo-9,9a-dihydrodibenzo[b,d]furan-4-carboxamide] was tested. Which inhibition in vivo at 0.03 % in feed did it give?
Answer: The inhibition in vivo at 0.03 % in feed was 37%.

Question: `CCC#CCOc1cc(C)c(CNC(=O)c2c(OC)cc(O)c3c2OC2=CC(O)=C(C(C)=O)C(=O)[C@]23C)c(C)c1C` [Example 103, (9aS)-8-Acetyl-1,7-dihydroxy-3-methoxy-9a-methyl-9-oxo-N-[2,3,6-trimethyl-4-(2-pentynyloxy)benzyl]-9,9a-dihydrodibenzo[b,d]furan-4-carboxamide] was tested. Which inhibition in vivo at 0.03 % in feed did it give?
Answer: The inhibition in vivo at 0.03 % in feed was 62%.

Question: For `CCc1ccc2ccccc2c1CNC(=O)c1c(OC)cc(O)c2c1OC1=CC(O)=C(C(C)=O)C(=O)[C@]12C` [Example 56, (9aS)-8-Acetyl-N-[(2-ethyl-1-naphthyl)methyl]-1,7-dihydroxy-3-methoxy-9a-methyl-9-oxo-9,9a-dihydrodibenzo[b,d]furan-4-carboxamide], which inhibition in vivo at 0.03 % in feed is on record?
Answer: The inhibition in vivo at 0.03 % in feed was 24%.

Question: With `COc1cc(O)c2c(c1C(=O)NCc1c(C)ccc3c(F)cc(F)cc13)OC1=CC(O)=C(C(C)=O)C(=O)[C@]12C` [Example 176, (9aS)-8-Acetyl-N-[(5,7-difluoro-2-methyl-1-naphthyl)methyl]-1,7-dihydroxy-3-methoxy-9a-methyl-9-oxo-9,9a-dihydrodibenzo[b,d]furan-4-carboxamide] as the compound, how does the inhibition in vivo at 0.03 % in feed read?
Answer: Its inhibition in vivo at 0.03 % in feed is 40%.

Question: For `CCc1ccc2ccc(F)cc2c1CNC(=O)c1c(OC)cc(O)c2c1OC1=CC(O)=C(C(C)=O)C(=O)[C@]12C` [Example 184, (9aS)-8-Acetyl-N-[(2-ethyl-7-fluoro-1-naphthyl)methyl]-1,7-dihydroxy-3-methoxy-9a-methyl-9-oxo-9,9a-dihydrodibenzo[b,d]furan-4-carboxamide], which inhibition in vivo at 0.03 % in feed is on record?
Answer: Its inhibition in vivo at 0.03 % in feed is 37%.

Question: With `COc1cc(O)c2c(c1C(=O)NCc1ccc(OCc3ccccc3)c3ccccc13)OC1=CC(O)=C(C(C)=O)C(=O)[C@]12C` [Example 104, (9aS)-8-Acetyl-N-{[4-(benzyloxy)-1-naphthyl]methyl}-1,7-dihydroxy-3-methoxy-9a-methyl-9-oxo-9,9a-dihydrodibenzo[b,d]furan-4-carboxamide] as the compound, how does the inhibition in vivo at 0.03 % in feed read?
Answer: Its inhibition in vivo at 0.03 % in feed is 53%.

Question: Which inhibition in vivo at 0.03 % in feed does the source give for `CCc1ccc2c(F)cc(C)cc2c1CNC(=O)c1c(OC)cc(O)c2c1OC1=CC(O)=C(C(C)=O)C(=O)[C@]12C` [Example 195, (9aS)-8-Acetyl-N-[(2-ethyl-5-fluoro-7-methyl-1-naphthyl)methyl]-1,7-dihydroxy-3-methoxy-9a-methyl-9-oxo-9,9a-dihydrodibenzo[b,d]furan-4-carboxamide] here?
Answer: The inhibition in vivo at 0.03 % in feed was 36%.

Question: How did the inhibition in vivo at 0.03 % in feed turn out when `CC#CCOc1cc(C)c(CNC(=O)c2c(OC)cc(O)c3c2OC2=CC(O)=C(C(C)=O)C(=O)[C@]23C)c(C)c1C` [Example 102, (9aS)-8-Acetyl-N-[4-(2-butynyloxy)-2,3,6-trimethylbenzyl]-1,7-dihydroxy-3-methoxy-9a-methyl-9-oxo-9,9a-dihydrodibenzo[b,d]furan-4-carboxamide] was run?
Answer: The inhibition in vivo at 0.03 % in feed was 63%.

Question: Which inhibition in vivo at 0.03 % in feed does the source give for `COc1cc(O)c2c(c1C(=O)NCc1c(C)cc(Br)c3ccccc13)OC1=CC(O)=C(C(C)=O)C(=O)[C@]12C` [Example 177, (9aS)-8-Acetyl-N-[(4-bromo-2-methyl-1-naphthyl)methyl]-1,7-dihydroxy-3-methoxy-9a-methyl-9-oxo-9,9a-dihydrodibenzo[b,d]furan-4-carboxamide] here?
Answer: Its inhibition in vivo at 0.03 % in feed is 43%.

Question: For `CC(=O)C1=C(O)C=C2Oc3c(C(=O)NCc4c(C)ccc5ccccc45)c(OC(F)F)cc(O)c3[C@]2(C)C1=O` [Example 86, (9aS)-8-Acetyl-3-(difluoromethoxy)-1,7-dihydroxy-9a-methyl-N-[(2-methyl-1-naphthyl)methyl]-9-oxo-9,9a-dihydrodibenzo[b,d]furan-4-carboxamide], which inhibition in vivo at 0.03 % in feed is on record?
Answer: Its inhibition in vivo at 0.03 % in feed is 31%.

Question: For `COc1cc(O)c2c(c1C(=O)NCc1ccc(OCc3ccccc3Cl)c3ccccc13)OC1=CC(O)=C(C(C)=O)C(=O)[C@]12C` [Example 147, (9aS)-8-Acetyl-N-({4-[(2-chlorobenzyl)oxy]-1-naphthyl}methyl)-1,7-dihydroxy-3-methoxy-9a-methyl-9-oxo-9,9a-dihydrodibenzo[b,d]furan-4-carboxamide], which inhibition in vivo at 0.03 % in feed is on record?
Answer: The inhibition in vivo at 0.03 % in feed was 62%.

Question: How did the inhibition in vivo at 0.03 % in feed turn out when `COc1cc(O)c2c(c1C(=O)NCc1c(C)ccc3c(F)c(F)c(F)cc13)OC1=CC(O)=C(C(C)=O)C(=O)[C@]12C` [Example 190, (9aS)-8-Acetyl-1,7-dihydroxy-3-methoxy-9a-methyl-9-oxo-N-[(5,6,7-trifluoro-2-methyl-1-naphthyl)methyl]-9,9a-dihydrodibenzo[b,d]furan-4-carboxamide] was run?
Answer: Its inhibition in vivo at 0.03 % in feed is 58%.

Question: Which inhibition in vivo at 0.03 % in feed does the source give for `COc1cc(O)c2c(c1C(=O)NCc1ccc(OCc3ccc(F)cc3F)c3ccccc13)OC1=CC(O)=C(C(C)=O)C(=O)[C@]12C` [Example 146, (9aS)-8-Acetyl-N-({4-[(2,4-difluorobenzyl)oxy]-1-naphthyl}methyl)-1,7-dihydroxy-3-methoxy-9a-methyl-9-oxo-9,9a-dihydrodibenzo[b,d]furan-4-carboxamide] here?
Answer: The inhibition in vivo at 0.03 % in feed was 49%.

Question: `COc1cc(O)c2c(c1C(=O)NCc1ccc(OCc3ccc(F)cc3)c3ccccc13)OC1=CC(O)=C(C(C)=O)C(=O)[C@]12C` [Example 106, (9aS)-8-Acetyl-N-({4-[(4-fluorobenzyl)oxy]-1-naphthyl}methyl)-1,7-dihydroxy-3-methoxy-9a-methyl-9-oxo-9,9a-dihydrodibenzo[b,d]furan-4-carboxamide] was tested. Which inhibition in vivo at 0.03 % in feed did it give?
Answer: The inhibition in vivo at 0.03 % in feed was 51%.

Question: How did the inhibition in vivo at 0.03 % in feed turn out when `COc1cc(O)c2c(c1C(=O)NCc1c(C)ccc3ccc(F)cc13)OC1=CC(O)=C(C(C)=O)C(=O)[C@]12C` [Example 182, (9aS)-8-Acetyl-N-[(7-fluoro-2-methyl-1-naphthyl)methyl]-1,7-dihydroxy-3-methoxy-9a-methyl-9-oxo-9,9a-dihydrodibenzo[b,d]furan-4-carboxamide] was run?
Answer: The inhibition in vivo at 0.03 % in feed was 50%.

Question: `COc1cc(O)c2c(c1C(=O)NCc1c(C)cc(F)c3ccccc13)OC1=CC(O)=C(C(C)=O)C(=O)[C@]12C` [Example 180, (9aS)-8-Acetyl-N-[(4-fluoro-2-methyl-1-naphthyl)methyl]-1,7-dihydroxy-3-methoxy-9a-methyl-9-oxo-9,9a-dihydrodibenzo[b,d]furan-4-carboxamide] was tested. Which inhibition in vivo at 0.03 % in feed did it give?
Answer: The inhibition in vivo at 0.03 % in feed was 60%.

Question: `CCc1c(C)cc2ccccc2c1CNC(=O)c1c(OC)cc(O)c2c1OC1=CC(O)=C(C(C)=O)C(=O)[C@]12C` [Example 116, (9aS)-8-Acetyl-N-[(2-ethyl-3-methyl-1-naphthyl)methyl]-1,7-dihydroxy-3-methoxy-9a-methyl-9-oxo-9,9a-dihydrodibenzo[b,d]furan-4-carboxamide] was tested. Which inhibition in vivo at 0.03 % in feed did it give?
Answer: Its inhibition in vivo at 0.03 % in feed is 32%.

Question: With `CCc1ccc2cccc(F)c2c1CNC(=O)c1c(OC)cc(O)c2c1OC1=CC(O)=C(C(C)=O)C(=O)[C@]12C` [Example 192, (9aS)-8-Acetyl-N-[(2-ethyl-8-fluoro-1-naphthyl)methyl]-1,7-dihydroxy-3-methoxy-9a-methyl-9-oxo-9,9a-dihydrodibenzo[b,d]furan-4-carboxamide] as the compound, how does the inhibition in vivo at 0.03 % in feed read?
Answer: The inhibition in vivo at 0.03 % in feed was 42%.

Question: `COc1cc(O)c2c(c1C(=O)NCc1c(C)ccc3ccc(Cl)cc13)OC1=CC(O)=C(C(C)=O)C(=O)[C@]12C` [Example 181, (9aS)-8-Acetyl-N-[(7-chloro-2-methyl-1-naphthyl)methyl]-1,7-dihydroxy-3-methoxy-9a-methyl-9-oxo-9,9a-dihydrodibenzo[b,d]furan-4-carboxamide] was tested. Which inhibition in vivo at 0.03 % in feed did it give?
Answer: Its inhibition in vivo at 0.03 % in feed is 45%.

Question: How did the inhibition in vivo at 0.03 % in feed turn out when `CCc1ccc2c(F)cc(F)cc2c1CNC(=O)c1c(OC)cc(O)c2c1OC1=CC(O)=C(C(C)=O)C(=O)[C@]12C` [Example 185, (9aS)-8-Acetyl-N-[(2-ethyl-5,7-difluoro-1-naphthyl)methyl]-1,7-dihydroxy-3-methoxy-9a-methyl-9-oxo-9,9a-dihydrodibenzo[b,d]furan-4-carboxamide] was run?
Answer: The inhibition in vivo at 0.03 % in feed was 27%.
